According to publication PMC11277489, “Novel Piperazine Derivatives of Vindoline as Anticancer Agents” (International Journal of Molecular Sciences, 2024):

Assays:
[1] = test system: HL-60(TB); test: NCI60 one-dose screen (10 μM), Leukemia; format: cell-based; settings: Homo sapiens; 10 μM; HL-60(TB), Leukemia; read-out: Growth percent rate
[2] = test system: K-562; test: NCI60 one-dose screen (10 μM), Leukemia; format: cell-based; settings: Homo sapiens, K562; 10 μM; K-562, Leukemia; read-out: Growth percent rate
[3] = test system: HS 578T; test: NCI60 one-dose screen (10 μM), Breast Cancer; format: cell-based; settings: Homo sapiens; 10 μM; HS 578T, Breast Cancer; read-out: Growth percent rate
[4] = test system: UACC-257; test: NCI60 one-dose screen (10 μM), Melanoma; format: cell-based; settings: Homo sapiens; 10 μM; UACC-257, Melanoma; read-out: Growth percent rate
[5] = test system: NCI-H522; test: NCI60 one-dose screen (10 μM), Non-small Cell Lung Cancer; format: cell-based; settings: Homo sapiens; 10 μM; NCI-H522, Non-small Cell Lung Cancer; read-out: Growth percent rate
[6] = test system: RXF 393; test: NCI60 one-dose screen (10 μM), Renal Cancer; format: cell-based, human; settings: Homo sapiens; 10 μM; RXF 393, Renal Cancer; read-out: Growth percent rate
[7] = test system: IGROV1; test: NCI60 one-dose screen (10 μM), Ovarian Cancer; format: cell-based; settings: Homo sapiens, IGROV-1; 10 μM; IGROV1, Ovarian Cancer; read-out: Growth percent rate
[8] = test system: NCI-H322M; test: NCI60 one-dose screen (10 μM), Non-small Cell Lung Cancer; format: cell-based; settings: Homo sapiens, 10 μM, Non-small Cell Lung Cancer, read-out: Growth percent rate
[9] = test system: EKVX; test: as above; format: cell-based; settings: Homo sapiens, 10 μM, Non-small Cell Lung Cancer, read-out: Growth percent rate
[10] = test system: SF-268; test: NCI60 one-dose screen (10 μM), CNS Cancer; format: cell-based; settings: Homo sapiens; 10 μM; SF-268, CNS Cancer; read-out: Growth percent rate
[11] = test system: HCT-15; test: NCI60 one-dose screen (10 μM), Colon Cancer; format: cell-based; settings: Homo sapiens; 10 μM; HCT-15, Colon Cancer; read-out: Growth percent rate
[12] = test system: A498; test: NCI60 one-dose screen (10 μM), Renal Cancer; format: cell-based; settings: Homo sapiens; 10 μM; A498, Renal Cancer; read-out: Growth percent rate
[13] = test system: SN12C; test: NCI60 one-dose screen (10 μM), Renal Cancer; format: cell-based; settings: Homo sapiens, 10 μM, Renal Cancer, read-out: Growth percent rate
[14] = test system: NCI-H460; test: NCI60 one-dose screen (10 μM), Non-small Cell Lung Cancer; format: cell-based; settings: Homo sapiens; 10 μM; NCI-H460, Non-small Cell Lung Cancer; read-out: Growth percent rate
[15] = test system: CAKI-1; test: NCI60 one-dose screen (10 μM), Renal Cancer; format: cell-based; settings: Homo sapiens; 10 μM; CAKI-1, Renal Cancer; read-out: Growth percent rate
[16] = test system: 60 human tumor cell lines (NCI60); test: NCI60 one-dose screen (10 μM), whole panel; format: cell-based
[17] = test system: SK-MEL-28; test: NCI60 one-dose screen (10 μM), Melanoma; format: cell-based; settings: Homo sapiens; 10 μM; SK-MEL-28, Melanoma; read-out: Growth percent rate
[18] = test system: SW-620; test: NCI60 one-dose screen (10 μM), Colon Cancer; format: cell-based; settings: Homo sapiens; 10 μM; SW-620, Colon Cancer; read-out: Growth percent rate
[19] = test system: COLO 205; test: NCI60 one-dose screen (10 μM), Colon Cancer; format: cell-based, human; settings: Homo sapiens; 10 μM; COLO 205, Colon Cancer; read-out: Growth percent rate
[20] = test system: MDA-MB-435; test: NCI60 one-dose screen (10 μM), Melanoma; format: cell-based; settings: Homo sapiens; 10 μM; MDA-MB-435, Melanoma; read-out: Growth percent rate
[21] = test system: OVCAR-3; test: NCI60 one-dose screen (10 μM), Ovarian Cancer; format: cell-based; settings: Homo sapiens; 10 μM; OVCAR-3, Ovarian Cancer; read-out: Growth percent rate
[22] = test system: U251; test: NCI60 one-dose screen (10 μM), CNS Cancer; format: cell-based; settings: Homo sapiens, U-251; 10 μM; U251, CNS Cancer; read-out: Growth percent rate
[23] = test system: SF-295; test: NCI60 one-dose screen (10 μM), CNS Cancer; format: cell-based; settings: Homo sapiens; 10 μM; SF-295, CNS Cancer; read-out: Growth percent rate
[24] = test system: LOX IMVI; test: NCI60 one-dose screen (10 μM), Melanoma; format: cell-based, human; settings: Homo sapiens; 10 μM; LOX IMVI, Melanoma; read-out: Growth percent rate
[25] = test system: SF-539; test: NCI60 one-dose screen (10 μM), CNS Cancer; format: cell-based, human; settings: Homo sapiens; 10 μM; SF-539, CNS Cancer; read-out: Growth percent rate
[26] = test system: MOLT-4; test: NCI60 one-dose screen (10 μM), Leukemia; format: cell-based, human; settings: Homo sapiens; 10 μM; MOLT-4, Leukemia; read-out: Growth percent rate
[27] = test system: A549/ATCC; test: NCI60 one-dose screen (10 μM), Non-small Cell Lung Cancer; format: cell-based; settings: Homo sapiens; 10 μM; A549/ATCC, Non-small Cell Lung Cancer; read-out: Growth percent rate
[28] = test system: CCRF-CEM; test: NCI60 one-dose screen (10 μM), Leukemia; format: cell-based; settings: Homo sapiens, 10 μM, Leukemia, read-out: Growth percent rate
[29] = test system: SNB-75; test: NCI60 one-dose screen (10 μM), CNS Cancer; format: cell-based, human; settings: Homo sapiens; 10 μM; SNB-75, CNS Cancer; read-out: Growth percent rate
[30] = test system: RPMI-8226; test: NCI60 one-dose screen (10 μM), Leukemia; format: cell-based; settings: Homo sapiens; 10 μM; RPMI-8226, Leukemia; read-out: Growth percent rate
[31] = test system: NCI-H23; test: NCI60 one-dose screen (10 μM), Non-small Cell Lung Cancer; format: cell-based; settings: Homo sapiens; 10 μM; NCI-H23, Non-small Cell Lung Cancer; read-out: Growth percent rate
[32] = test system: OVCAR-8; test: NCI60 one-dose screen (10 μM), Ovarian Cancer; format: cell-based; settings: Homo sapiens; 10 μM; OVCAR-8, Ovarian Cancer; read-out: Growth percent rate
[33] = test system: HOP-62; test: NCI60 one-dose screen (10 μM), Non-small Cell Lung Cancer; format: cell-based; settings: Homo sapiens; 10 μM; HOP-62, Non-small Cell Lung Cancer; read-out: Growth percent rate
[34] = test system: ACHN; test: NCI60 one-dose screen (10 μM), Renal Cancer; format: cell-based; settings: Homo sapiens, 10 μM, Renal Cancer, read-out: Growth percent rate
[35] = test system: KM12; test: NCI60 one-dose screen (10 μM), Colon Cancer; format: cell-based, human; settings: Homo sapiens; 10 μM; KM12, Colon Cancer; read-out: Growth percent rate
[36] = test system: MCF7; test: NCI60 one-dose screen (10 μM), Breast Cancer; format: cell-based; settings: Homo sapiens; 10 μM; MCF7, Breast Cancer; read-out: Growth percent rate
[37] = test system: HCT-116; test: NCI60 one-dose screen (10 μM), Colon Cancer; format: cell-based; settings: Homo sapiens; 10 μM; HCT-116, Colon Cancer; read-out: Growth percent rate
[38] = test system: TK-10; test: NCI60 one-dose screen (10 μM), Renal Cancer; format: cell-based; settings: Homo sapiens; 10 μM; TK-10, Renal Cancer; read-out: Growth percent rate
[39] = test system: OVCAR-4; test: NCI60 one-dose screen (10 μM), Ovarian Cancer; format: cell-based; settings: Homo sapiens; 10 μM; OVCAR-4, Ovarian Cancer; read-out: Growth percent rate
[40] = test system: MALME-3M; test: NCI60 one-dose screen (10 μM), Melanoma; format: cell-based; settings: Homo sapiens; 10 μM; MALME-3M, Melanoma; read-out: Growth percent rate
[41] = test system: 786–0; test: NCI60 one-dose screen (10 μM), Renal Cancer; format: cell-based; settings: Homo sapiens; 10 μM; 786-0, Renal Cancer; read-out: Growth percent rate
[42] = test system: SK-MEL-2; test: NCI60 one-dose screen (10 μM), Melanoma; format: cell-based; settings: Homo sapiens; 10 μM; SK-MEL-2, Melanoma; read-out: Growth percent rate

Work on `CCC12C=CCN3CCC4(c5ccc(OC)cc5N(C)C4C(O)(C(=O)OC)C1OC(=O)CCCBr)C32` (stereo not shown) [Compound 14, 17-(O-4-bromobutanoyl)vindoline] yielded an activity at 10 µM [1] of 90.5%, an activity at 10 µM [2] of 79.7% and an activity at 10 µM [3] of 94.5%. The activity at 10 µM [4] was 88.4%, the activity at 10 µM [5] was 79% and the activity at 10 µM [6] was 99.5%. The activity at 10 µM [7] was 100%, the activity at 10 µM [8] was 101% and the activity at 10 µM [9] was 91.2%. For the same compound, the activity at 10 µM [10] was 83.2%, the activity at 10 µM [11] was 96.8% and the activity at 10 µM [12] was 90.1%. It also gave an activity at 10 µM [13] of 97.4%, an activity at 10 µM [14] of 97.8% and an activity at 10 µM [15] of 80.9%. The “antiproliferative effect (in words)” value ([16]; 10 μM one-dose, NCI60) was “a notable antiproliferative effect was not shown”, the activity at 10 µM ([16]; 10 μM, mean over 60 human cancer cell lines, read-out: Growth percent rate, Mean) was 92.5% and the activity at 10 µM [17] was 105%. It also gave an activity at 10 µM [18] of 100%, an activity at 10 µM [19] of 101% and an activity at 10 µM [20] of 104%. For the same compound, the activity at 10 µM [21] was 99.7%, the activity at 10 µM [22] was 87.2% and the activity at 10 µM [23] was 86.9%. It also gave an activity at 10 µM [24] of 88.6%, an activity at 10 µM [25] of 91.9% and an activity at 10 µM [26] of 76.1%. It also gave an activity at 10 µM [27] of 89.4%, an activity at 10 µM [28] of 99.8% and an activity at 10 µM [29] of 92.6%. It also gave an activity at 10 µM [30] of 91.4%, an activity at 10 µM [31] of 93.1% and an activity at 10 µM [32] of 93.4%. For the same compound, the activity at 10 µM [33] was 101%, the activity at 10 µM [34] was 99.8% and the activity at 10 µM [35] was 100%. It also gave an activity at 10 µM [36] of 80.3%, an activity at 10 µM [37] of 87% and an activity at 10 µM [38] of 100%. The activity at 10 µM [39] was 83.9%, the activity at 10 µM [40] was 101% and the activity at 10 µM [41] was 94.3%. It also gave an activity at 10 µM [42] of 103%.
